Laboratory results taken from PubChem BioAssay AID1963444 (Molecular Pharmacology Branch, DTP, NCI, 2024).

Tested on: HSSY-II complex spheroid growth, percent test/control
Assay: Anticancer human tumor HSSY-II cell line growth inhibition [Asc];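 further: spheroids exposed to drug for 7 days before reading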
Details: for IC50: curve of first compound; for viability, T/C: stronger effect = lower value
Procedure, shortened: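 Complex spheroids combining tumor cells with HUVEC endothelial cells and human MSCs, at 37 degrees C, 5% CO2; agents tested alone or combined, half-log dilutions from at or near clinical Cmax, or 10 microM if Cmax unknown.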

In the case of `C#Cc1c(F)ccc2cc(O)cc(-c3ncc4c(N5CC6CCC(C5)N6)nc(OCC56CCCN5CC(F)C6)nc4c3F)c12` (configuration not stated) + CNC(C)C(=O)NC1CN(S(=O)(=O)c2cccc(S(=O)(=O)N3CCC4CCC(C(=O)NC(c5ccccc5)c5ccccc5)N4C(=O)C(NC(=O)C(C)NC)C3)c2)CCC2CCC(C(=O)NC(c3ccccc3)c3ccccc3)N2C1=O, the IC50 (second compound 0.00316 µM) is reported as over 10 µM, the IC50 (second compound 0.01 µM) is reported as 6.97 µM and the IC50 (second compound 0.0316 µM) is reported as 8.98 µM. It also gave an IC50 (second compound 0.1 µM) of over 10 µM, an IC50 (second compound 0.316 µM) of 9.6 µM and an IC50 (second compound 1 µM) of 7.49 µM. It also gave a viability, T/C (second compound 0.00316 µM, first compound 0.0316 µM) of 97.9%, a viability, T/C (second compound 0.00316 µM, first compound 0.1 µM) of 92.2% and a viability, T/C (second compound 0.00316 µM, first compound 0.316 µM) of 92.2%. It also gave a viability, T/C (second compound 0.00316 µM, first compound 1 µM) of 109%, a viability, T/C (second compound 0.00316 µM, first compound 3.16 µM) of 96.7% and a viability, T/C (second compound 0.00316 µM, first compound 10 µM) of 62.2%. It also gave a viability, T/C (second compound 0.01 µM, first compound 0.0316 µM) of 100%, a viability, T/C (second compound 0.01 µM, first compound 0.1 µM) of 88% and a viability, T/C (second compound 0.01 µM, first compound 0.316 µM) of 94%. The viability, T/C (second compound 0.01 µM, first compound 1 µM) was 98.1%, the viability, T/C (second compound 0.01 µM, first compound 3.16 µM) was 88.8% and the viability, T/C (second compound 0.01 µM, first compound 10 µM) was 32%. For the same molecule, the viability, T/C (second compound 0.0316 µM, first compound 0.0316 µM) was 100%, the viability, T/C (second compound 0.0316 µM, first compound 0.1 µM) was 96.3% and the viability, T/C (second compound 0.0316 µM, first compound 0.316 µM) was 95.2%. It also gave a viability, T/C (second compound 0.0316 µM, first compound 1 µM) of 94.3%, a viability, T/C (second compound 0.0316 µM, first compound 3.16 µM) of 94.2% and a viability, T/C (second compound 0.0316 µM, first compound 10 µM) of 45.4%. It also gave a viability, T/C (second compound 0.1 µM, first compound 0.0316 µM) of 100%, a viability, T/C (second compound 0.1 µM, first compound 0.1 µM) of 91.7% and a viability, T/C (second compound 0.1 µM, first compound 0.316 µM) of 93.6%. It also gave a viability, T/C (second compound 0.1 µM, first compound 1 µM) of 88.5%, a viability, T/C (second compound 0.1 µM, first compound 3.16 µM) of 85.1% and a viability, T/C (second compound 0.1 µM, first compound 10 µM) of 63%. For the same molecule, the viability, T/C (second compound 0.316 µM, first compound 0.0316 µM) was 102%, the viability, T/C (second compound 0.316 µM, first compound 0.1 µM) was 93.9% and the viability, T/C (second compound 0.316 µM, first compound 0.316 µM) was 88.5%. For the same molecule, the viability, T/C (second compound 0.316 µM, first compound 1 µM) was 91.2%, the viability, T/C (second compound 0.316 µM, first compound 3.16 µM) was 84.9% and the viability, T/C (second compound 0.316 µM, first compound 10 µM) was 48.1%. The viability, T/C (second compound 1 µM, first compound 0.0316 µM) was 91.9%, the viability, T/C (second compound 1 µM, first compound 0.1 µM) was 90.8% and the viability, T/C (second compound 1 µM, first compound 0.316 µM) was 96.2%. The viability, T/C (second compound 1 µM, first compound 1 µM) was 86.1%, the viability, T/C (second compound 1 µM, first compound 3.16 µM) was 86.6% and the viability, T/C (second compound 1 µM, first compound 10 µM) was 37.5%.
